Experimental data reported in patent US20060128662A1, “Novel compounds for treatment of obesity” (Novo Nordisk A/S, priority 2003, published 2006).

System: FSK-4 cells
Experiment: Assay (I): Glucose utilisation in a human epithelia cell line (FSK4 cells), D-(6-3H(N))-glucose
Assay type: cell-based
Conditions: 24 hours incubation, Hill equation, read-out: GlucosFSK4 EC50
Description: Assay (I): Glucose Utilisation in a Human Epithelia Cell Line (FSK4 cells)
The ^3H-proton will first be released in the TCA cyclus and transported to the respiratory chain where it will be incorporated into water. The water is thereafter separated from the D-(6-^3H(N))-glucose by evaporation.
FSK-4 cells obtained from ATCC (Maryland, USA), are cultured in growth medium (McCoy's medium with the following addition 100 units/ml penicillin and streptomycin and 10% FCS (fetal calf serum)) at 37° C. and 5% CO2.
The cells are then incubated for another 24 hours at 37° C. and 5% CO2.
The half maximal concentration (EC50) and maximal efficacy (Emax) are calculated using the Hill equation in GraphPad Prism 3.0 (GraphPad software, Inc.). […] From the percentage increase in glucose utilisation the linear slope is calculated using the Michaelis-Menten equation.

CC(C)(C)c1cc(/C=C(\C#N)S(=O)(=O)c2ccc(/C=C/c3ccccc3)cc2)cc(C(C)(C)C)c1O [Example 51, 3-(3,5-Di-tert-butyl-4-hydroxy-phenyl)-2-(4-styryl-benzenesulfonyl)-acrylonitrile]
EC50: 900 nM

CC(C)CO/C=C/c1ccc(S(=O)(=O)/C(C#N)=C/c2cc(C(C)(C)C)c(O)c(C(C)(C)C)c2)cc1 [Example 52, 3-(3,5-Di-tert-butyl-4-hydroxy-phenyl)-2-[4-(2-isobutoxy-vinyl)-benzenesulfonyl]-acrylonitrile]
EC50: 1000 nM
